Target: T1, hematopoietic prostaglandin D synthase (H-PGDS) (Homo sapiens, UniProt O60760)
T1 construct: Full length human H-PGDS cDNA (Invitrogen Ultimate ORF IOH13026) was amplified by PCR; 6-His (N); TEV protease cleavage site (N); made in house; host or cells: E. coli BL21 (DE3*), vector pET22b+
Experiment: H-PGDS RapidFire High Throughput Mass Spectrometry Assay
Type: biochemical
Conditions: conversion of PGH2 to PGD2 by human H-PGDS, 10 nM enzyme; mean pIC50; read-out: Potency Range (mean pIC50) (converted)
Procedure: The H-PGDS RapidFire™ mass spectrometric assay monitors conversion of prostaglandin H2 (PGH2) to prostaglandin D2 (PGD2) by hematopoietic prostaglandin D synthase (H-PGDS). In the assay format described here, the substrate (PGH2) is formed in situ by the action of cyclooxygenase-2 on arachidonic acid. This first step is set up to be fast, and generates a burst of PGH2 at ˜10 μM. The PGH2 is then further converted to PGD2 by the H-PGDS enzyme. […] Plates are then read on the RapidFire™ high throughput solid phase extraction system (Agilent) which incorporates a solid phase extraction step coupled to a triple quadrupole mass spectrometer (AB SCIEX). Relative levels of PGD2 and PGF2α, which acts as a surrogate for substrate, are measured and a percent conversion calculated. Inhibitors are characterized as compounds which lower the conversion of PGH2 to PGD2.
Full length human H-PGDS cDNA (Invitrogen Ultimate ORF IOH13026) was amplified by PCR with the addition of a 5′ 6-His tag and TEV protease cleavage site. The PCR product was digested with NdeI and XhoI and ligated into pET22b+ (Merck Novagen®). Expression was carried out in E. coli strain BL21 (DE3*) using auto-induction Overnight Express™ Instant TB medium (Merck Novagen®) supplemented with 1% glycerol. The culture was first grown at 37° C. and the temperature was reduced to 25° C. when OD600 reached 2.0. Cells were harvested by centrifugation after a further 18 hours. 10 g of E. coli cell pellet was suspended to a total volume of 80 mL in lysis buffer (20 mM Tris-Cl pH 7.5, 300 mM NaCl, 20 mM imidazole, 5 mM β-mercaptoethanol, 10% glycerol). 1 mg/mL protease inhibitors (Protease Inhibitor Cocktail Set III, Merck Calbiochem®) and 1 mg/mL lysozyme were added to the cell suspension. The suspension was then sonicated for 5 min (Ultrasonic Processor VCX 750, Cole-Parmer Instrument Co.) with a micro probe (50% amplitude, 10 sec on/off) and then centrifuged at 100,000 g for 90 minutes (at 4° C.). The supernatant was loaded onto a Ni-NTA HiTrap column (5 mL, GE Healthcare, pre-equilibrated in lysis buffer). The column was washed with 10 column volumes of lysis buffer and eluted with lysis buffer containing 500 mM imidazole. The pooled protein peak fractions were concentrated using a 10 kDa centrifugal filter at 3500 g and 4° C. (Amicon Ultra-15 centrifugal filter unit with Ultracel-10 membrane from Millipore). Further purification of the concentrated protein was carried out using gel filtration chromatography on a HiLoad 26/600 Superdex75 preparative grade column (GE Healthcare Life Sciences) using 50 mM Tris pH 7.5, 50 mM NaCl, 1 mM dithiothreitol, 1 mM MgCl2. Fractions containing the protein were pooled, concentrated as described above, and stored at −80° C.
The full length human COX-2 gene (accession number L15326) was amplified by PCR to generate an EcoRI-Hindi 11 fragment containing an in-frame FLAG tag. This was subcloned into pFastBac 1 (Invitrogen). The COX-2 FLAG plasmid was recombined into the baculovirus genome according to the BAC-to-BAC protocol described by Invitrogen. Transfection into Spodoptera frugiperda (Sf9) insect cells was performed using Cellfectin (Invitrogen), according to the manufacturer's protocol. Super Sf9 cells were cultured in EX420 media (SAFC Biosciences) to a density of approximately 1.5×10^6 cells/mL within a wave bioreactor. Recombinant virus was added at a Multiplicity of Infection (MOI) of 5 and the culture was allowed to continue for 3 days. Cells were harvested using a continuous feed centrifuge run at 2500 g at a rate of approximately 2 L/min with cooling. The resultant cell slurry was re-centrifuged in pots (2500 g, 20 min, 4° C.) and the cell paste was stored at −80° C. 342 g of cell paste was re-suspended to a final volume of 1600 mL in a buffer of 20 mM Tris-Cl pH 7.4, 150 mM NaCl, 0.1 mM EDTA, 1.3% w/v n-octyl-β-D-glucopyranoside containing 20 Complete EDTA-free Protease Inhibitor Cocktail tablets (Roche Applied Science). […]

T1 sequence (O60760 whole entry): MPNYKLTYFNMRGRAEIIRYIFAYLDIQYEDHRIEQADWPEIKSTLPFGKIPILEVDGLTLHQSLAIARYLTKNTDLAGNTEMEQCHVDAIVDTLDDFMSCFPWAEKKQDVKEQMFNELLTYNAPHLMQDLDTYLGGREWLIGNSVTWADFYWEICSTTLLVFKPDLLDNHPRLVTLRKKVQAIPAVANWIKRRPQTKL

SMILES	IC50 [nM]
CN(c1nc2ncc(C(=O)N[C@H]3CC[C@H](C(C)(C)O)CC3)cc2s1)C(C)(C)C [Example 38, 2-(tert-Butyl(methyl)amino)-N-(trans-4-(2-hydroxypropan-2-yl)cyclohexyl)thiazolo[4,5-b]pyridine-6-carboxamide]	100 to 1000
CC(C)(O)[C@H]1CC2(C[C@H](NC(=O)c3cnc4nc(C5CC5)sc4c3)C2)C1 (single isomer, unassigned) [Example 42]	10 to 79.4
C[C@]1(O)CC[C@H](NC(=O)c2cnc3nc(C4CC4)sc3c2)CC1 [Example 17, 2-Cyclopropyl-N-((trans)-4-hydroxy-4-methylcyclohexyl)thiazolo[4,5-b]pyridine-6-carboxamide]	1260 to 10000
CN(c1nc2ncc(C(=O)N[C@H]3CC[C@H](C(C)(C)O)CC3)cc2s1)C1CC1 [Example 35, 2-(Cyclopropyl(methyl)amino)-N-(trans-4-(2-hydroxypropan-2-yl)cyclohexyl)thiazolo[4,5-b]pyridine-6-carboxamide]	100 to 1000
CC(C)(O)[C@H]1CC[C@H](NC(=O)c2cnc3nc(N4CCCC4)sc3c2)CC1 [Example 33, N-(trans-4-(2-Hydroxypropan-2-yl)cyclohexyl)-2-(pyrrolidin-1-yl)thiazolo[4,5-b]pyridine-6-carboxamide]	100 to 1000
CN(C)c1nc2ncc(C(=O)N[C@H]3CC[C@H](C(C)(C)O)CC3)cc2s1 [Example 9]	10 to 79.4
C[C@]1(O)C[C@@H](NC(=O)c2cnc3cc(Br)sc3c2)C1 [Example 3]	1260 to 10000
O=C(N[C@H]1CC[C@H](C(O)C2CC2)CC1)c1cnc2nc(C3CC3)sc2c1 (relative stereo) [Example 26, 2-Cyclopropyl-N-(trans-4-(cyclopropyl(hydroxy)methyl)cyclohexyl)thiazolo[4,5-b]pyridine-6-carboxamide]	10 to 79.4
O=C(N[C@H]1CC[C@H](CO)CC1)c1cnc2nc(C3CC3)sc2c1 [Example 20, 2-Cyclopropyl-N-((trans)-4-(hydroxymethyl)cyclohexyl)thiazolo[4,5-b]pyridine-6-carboxamide]	100 to 1000
CC(C)(O)C12CC(NC(=O)c3cnc4nc(C5CC5)sc4c3)(C1)C2 [Example 13, 2-Cyclopropyl-N-(3-(2-hydroxypropan-2-yl)bicyclo[1.1.1]pentan-1-yl)thiazolo[4,5-b]pyridine-6-carboxamide]	100 to 1000
CC(N[C@H]1CC[C@H](NC(=O)c2cnc3nc(C4CC4)sc3c2)CC1)C(F)F (relative stereo) [Example 23, 2-Cyclopropyl-N-(trans-4-((1,1-difluoropropan-2-yl)amino)cyclohexyl)thiazolo[4,5-b]pyridine-6-carboxamide]	100 to 1000
CC(C)(O)[C@H]1C[C@H](NC(=O)c2cnc3nc(C4CC4)sc3c2)C1 [Example 22, 2-Cyclopropyl-N-((trans)-3-(2-hydroxypropan-2-yl)cyclobutyl)thiazolo[4,5-b]pyridine-6-carboxamide]	100 to 1000
COc1nc2ncc(C(=O)N[C@H]3CC[C@H](C(C)(C)O)CC3)cc2s1 [Example 40, N-((trans)-4-(2-Hydroxypropan-2-yl)cyclohexyl)-2-methoxythiazolo[4,5-b]pyridine-6-carboxamide]	100 to 1000
CC(C)(O)[C@H]1CC[C@H](NC(=O)c2cnc3nc(C4CCC4)sc3c2)CC1 [Example 14, 2-Cyclobutyl-N-((trans)-4-(2-hydroxypropan-2-yl)cyclohexyl)thiazolo[4,5-b]pyridine-6-carboxamide]	10 to 79.4
CSc1nc2ncc(C(=O)N[C@H]3CC[C@H](C(C)(C)O)CC3)cc2s1 [Example 39, N-((trans)-4-(2-Hydroxypropan-2-yl)cyclohexyl)-2-(methylthio)thiazolo[4,5-b]pyridine-6-carboxamide]	10 to 79.4
CC(C)N(c1nc2ncc(C(=O)N[C@H]3CC[C@H](C(C)(C)O)CC3)cc2s1)C(C)C [Example 37, 2-(Diisopropylamino)-N-(trans-4-(2-hydroxypropan-2-yl)cyclohexyl)thiazolo[4,5-b]pyridine-6-carboxamide]	1260 to 10000

Reference: US20210139507A1, “FUSED PYRIDINES WHICH ACT AS INHIBITORS OF H PGDS” (GlaxoSmithKline Intellectual Property Development Limited, priority 2017, published 2021)
